Values of other authors, collected in patent US10296863B2, “Wireless sensor devices for post-harvest crop quality and pest management” (priority 2017, dated 2019).
Where two headings read alike, the source gives them in different places.

Key:
[1] = test system: resistant cigarette beetle
[2] = test system: tobacco moth and susceptible cigarette beetle
[3] = tobacco temperature 16-20 °C (61-68 °F), 300 ppm phosphine at the bale/case centre

P [phosphine]
Minimum Exposure Time to achieve 100% control [1, 3]: 12 days
Minimum Exposure Time to achieve 100% control ([1]; tobacco temperature 20-25 °C (68-77 °F), 300 ppm phosphine at the bale/case centre): 12 days
Minimum Exposure Time to achieve 100% control ([1]; tobacco temperature 20-25 °C (68-77 °F), 700 ppm phosphine at the bale/case centre): 10 days
Minimum Exposure Time to achieve 100% control ([1]; tobacco temperature >25 °C (>77 °F), 300 ppm phosphine at the bale/case centre): 12 days
Minimum Exposure Time to achieve 100% control ([1]; tobacco temperature >25 °C (>77 °F), 600 ppm phosphine at the bale/case centre): 6 days
Minimum Exposure Time to achieve 100% control [2, 3]: 6 days
Minimum Exposure Time to achieve 100% control ([2]; tobacco temperature >20 °C (>68 °F), 200 ppm phosphine at the bale/case centre): 4 days
